Experimental data from PubChem BioAssay AID330 (DTP/NCI, 2004).
“And” between values parts separate entries of the source, which are not always exact repeats. Identical values can stand only once. Toxic doses and inconclusive results are not listed. The calls were made as follows: active = survival T/C of 150% or more; inactive = T/C below 125% in these data.

Test system: P388 leukemia ip, CD2F1 mice, survival T/C
Assay: NCI In Vivo Anticancer Drug Screen. Data for tumor model P388 Leukemia (intraperitoneal) in CD2F1 (CDF1) mice
Conditions: endpoint: median survival time, higher = longer survival
How it was run: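 Mice carrying the transplanted tumor received test compound or vehicle. Survival was recorded in each group, and the value is the treated-group measurement divided by that of the vehicle-treated control group.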

[1] = dose: 50.0 mg/kg/injection, schedule: Q01DX005 (ip), vehicle: saline with Tween-80
[2] = dose: 100.0 mg/kg/injection, schedule: Q01DX005 (ip), vehicle: saline with Tween-80
[3] = dose: 200.0 mg/kg/injection, schedule: Q01DX005 (ip), vehicle: saline with Tween-80
[4] = dose: 50.0 mg/kg/injection, schedule: Q01DX005 (ip), vehicle: Klucel (hydroxypropylcellulose) (HPC)
[5] = dose: 100.0 mg/kg/injection, schedule: Q01DX005 (ip), vehicle: Klucel (hydroxypropylcellulose) (HPC)
[6] = dose: 200.0 mg/kg/injection, schedule: Q01DX005 (ip), vehicle: Klucel (hydroxypropylcellulose) (HPC)

Measured: T/C

COC(=O)C(CS)NC(=O)CCNC(=O)OCc1ccccc1 (configuration not stated)
inactive: dose: 25.0 mg/kg/injection, schedule: Q04DX003 (ip), vehicle: sodium bicarbonate 91 % of control | dose: 50.0 mg/kg/injection, schedule: Q04DX003 (ip), vehicle: sodium bicarbonate 87 % of control | dose: 100.0 mg/kg/injection, schedule: Q04DX003 (ip), vehicle: sodium bicarbonate 96 % of control | dose: 200.0 mg/kg/injection, schedule: Q04DX003 (ip), vehicle: sodium bicarbonate 87 % of control | dose: 400.0 mg/kg/injection, schedule: Q04DX003 (ip), vehicle: sodium bicarbonate 91 % of control

COc1cccc2c1C(=O)c1c(O)c3c(c(O)c1C2=O)CC(O)(C(C)=O)CC3OC1CC(N/C(C)=C/C(C)=O)C(O)C(C)O1 (configuration not stated)
inactive: dose: 3.13 mg/kg/injection, schedule: Q04DX003 (ip), vehicle: distilled water + Tween-80 94 % of control | dose: 6.25 mg/kg/injection, schedule: Q04DX003 (ip), vehicle: distilled water + Tween-80 103 % of control | dose: 12.5 mg/kg/injection, schedule: Q04DX003 (ip), vehicle: distilled water + Tween-80 103 % of control | dose: 25.0 mg/kg/injection, schedule: Q04DX003 (ip), vehicle: distilled water + Tween-80 115 % of control and 119 % of control | dose: 200.0 mg/kg/injection, schedule: Q04DX003 (ip), vehicle: distilled water + Tween-80 102 % of control

CN1CCC(C(=O)O)(c2ccccc2)CC1
inactive: dose: 9.4 mg/kg/injection, schedule: Q01DX009 (ip), vehicle: saline with Tween-80 100 % of control | dose: 18.8 mg/kg/injection, schedule: Q01DX009 (ip), vehicle: saline with Tween-80 98 % of control | dose: 37.5 mg/kg/injection, schedule: Q01DX009 (ip), vehicle: saline with Tween-80 97 % of control | dose: 75.0 mg/kg/injection, schedule: Q01DX009 (ip), vehicle: saline with Tween-80 111 % of control

CC1=C(CO)C(=O)OC(C(C)C2CCC3C4CC5OC56C(O)C(N5CCOCC5)CC(=O)C6(C)C4CCC23C)C1 (configuration not stated)
inactive: dose: 8.25 mg/kg/injection, schedule: Q01DX005 (ip), vehicle: Klucel (hydroxypropylcellulose) (HPC) 103 % of control | dose: 16.5 mg/kg/injection, schedule: Q01DX005 (ip), vehicle: Klucel (hydroxypropylcellulose) (HPC) 99 % of control | dose: 33.0 mg/kg/injection, schedule: Q01DX005 (ip), vehicle: Klucel (hydroxypropylcellulose) (HPC) 97 % of control | dose: 66.0 mg/kg/injection, schedule: Q01DX005 (ip), vehicle: Klucel (hydroxypropylcellulose) (HPC) 97 % of control | dose: 132.0 mg/kg/injection, schedule: Q01DX005 (ip), vehicle: Klucel (hydroxypropylcellulose) (HPC) 103 % of control

Nc1cccc(CCCCc2ccccc2)c1
inactive: dose: 100.0 mg/kg/injection, schedule: Q04DX002 (ip), vehicle: saline 103 % of control | dose: 200.0 mg/kg/injection, schedule: Q04DX002 (ip), vehicle: saline 110 % of control

CCCCc1c(O)c2c(=O)n(C)c(=O)n3c4ccccc4n(c1=O)c23
inactive: dose: 60.0 mg/kg/injection, schedule: Q01DX005 (ip), vehicle: saline with Tween-80 100 % of control | dose: 120.0 mg/kg/injection, schedule: Q01DX005 (ip), vehicle: saline with Tween-80 89 % of control | dose: 240.0 mg/kg/injection, schedule: Q01DX005 (ip), vehicle: saline with Tween-80 90 % of control

Cc1cc(C)c(N(CCO)CCO)cc1C
inactive: dose: 50.0 mg/kg/injection, schedule: Q01DX009 (ip), vehicle: saline with Tween-80 99 % of control | dose: 100.0 mg/kg/injection, schedule: Q01DX009 (ip), vehicle: saline with Tween-80 108 % of control | dose: 200.0 mg/kg/injection, schedule: Q01DX009 (ip), vehicle: saline with Tween-80 97 % of control

CC(C)=C[C@@H]1c2c(c3ccccc3n(C)c2=O)O[C@H]2c3c(c4ccccc4n(C)c3=O)OC(C)(C)[C@@H]12
inactive: [1] 99 % of control | [2] 100 % of control | [3] 100 % of control

COc1ccc(/C=C2\CCN=C2c2ccccc2)cc1OC
inactive: [4] 101 % of control | [5] 97 % of control | [6] 96 % of control

CC1=NN(C(=O)c2ccc(Cl)cc2)C(=O)C1N=Nc1ccc(S(=O)(=O)Nc2ncccn2)cc1 (configuration not stated)
inactive: [1] 94 % of control | [2] 97 % of control | [3] 87 % of control

C[Si](C)(C)Cn1ccc2ccccc21
inactive: [1] 100 % of control | [2] 105 % of control | [3] 108 % of control

CC1(C(Cl)(Cl)Cl)C=CC(=NO)C=C1 (configuration not stated)
inactive: [4] 110 % of control | [5] 107 % of control | [6] 110 % of control
